The values below come from ChEMBL document CHEMBL4190365, “Synthesis and antiproliferative properties of new hydrophilic esters of triterpenic acids” (Eur J Med Chem, 2017).

pIC50: −log10 of the molar value.

By pIC50 is commonly meant the IC50 on a negative log10 scale, so that one unit is a factor of ten.

Format in all cases: functional, cell-based
One experiment deals with BJ. In words: Cytotoxicity in human BJ cells assessed as reduction in cell viability incubated for 72 hrs by calcein AM cytotoxicity assay.
For another experiment, the system named is G-361. In words: Cytotoxicity in human G361 cells assessed as reduction in cell viability incubated for 72 hrs by calcein AM cytotoxicity assay.
Another experiment concerns CCRF-CEM. In words: Cytotoxicity in human CEM cells assessed as reduction in cell viability incubated for 72 hrs by calcein AM cytotoxicity assay.
The next experiment deals with MCF7. Put plainly: Cytotoxicity in human MCF7 cells assessed as reduction in cell viability incubated for 72 hrs by calcein AM cytotoxicity assay.
Another experiment has as its system HeLa. Put plainly: Cytotoxicity in human HeLa cells assessed as reduction in cell viability incubated for 72 hrs by calcein AM cytotoxicity assay.

With `CC(=O)O[C@H]1CC[C@]2(C)[C@H]3CC[C@@H]4C5=C(C(C)C)C(=O)C[C@]5(C(=O)OCCN5CCCCC5)CC[C@@]4(C)[C@]3(C)CC[C@H]2C1(C)C`, the pIC50 in the experiment with BJ (bj) was 4.35; in the experiment on G-361 (g-361), 5.14; in the experiment with CCRF-CEM (Homo sapiens, CCRF-CEM, 72 h) it was 4.67; with MCF7 (mcf7), 5.24; in the experiment with HeLa (hela), 5.04.
As for `CC(C)[C@@H]1CC[C@]2(C(=O)OCCN3CCOCC3)CC[C@]3(C)[C@H](CC[C@@H]4[C@@]5(C)CC[C@H](O)C(C)(C)[C@@H]5CC[C@]43C)[C@@H]12`, the pIC50 is 4.43 with BJ (Homo sapiens, BJ, 72 h); 4.47 with G-361 (Homo sapiens, G-361, 72 h); 4.34 with CCRF-CEM (Homo sapiens, CCRF-CEM, 72 h); 4.42 in the experiment on MCF7 (Homo sapiens, MCF7, 72 h); 4.50 with HeLa (Homo sapiens, HeLa, 72 h).
On the same counts, the results for `CC(=O)OC[C@H]1O[C@@H](OC(=O)[C@]23CC[C@@H](C(C)C)[C@@H]2[C@H]2CC[C@@H]4[C@@]5(C)CC[C@H](O)C(C)(C)[C@@H]5CC[C@@]4(C)[C@]2(C)CC3)[C@H](OC(C)=O)[C@@H](OC(C)=O)[C@@H]1OC(C)=O` are less than 4.30, 5.09, 4.73, 4.86 and 4.81.
With `COCCOC(=O)[C@@]12CC[C@]3(C)[C@H](CC[C@@H]4[C@@]5(C)CC[C@H](OC(C)=O)C(C)(C)[C@@H]5CC[C@]43C)C1=C(C(C)C)C(=O)C2`, the pIC50 in the experiment on BJ (Homo sapiens, BJ, 72 h) was less than 4.30; in the experiment with G-361 (Homo sapiens, G-361, 72 h), 4.70; with CCRF-CEM (Homo sapiens, CCRF-CEM, 72 h), 4.75; in the experiment with MCF7 (Homo sapiens, MCF7, 72 h), 4.37; in the experiment on HeLa (Homo sapiens, HeLa, 72 h), less than 4.30.
In the case of `COCCOC(=O)[C@]1(COC(C)=O)CC[C@]2(C)[C@H](CC[C@@H]3[C@@]4(C)CC[C@H](OC(C)=O)C(C)(C)[C@@H]4CC[C@]32C)C1=O`, the pIC50 was less than 4.30 with BJ (Homo sapiens, BJ, 72 h); less than 4.30 in the experiment with G-361 (Homo sapiens, G-361, 72 h); less than 4.30 with CCRF-CEM (Homo sapiens, CCRF-CEM, 72 h); less than 4.30 in the experiment on MCF7 (Homo sapiens, MCF7, 72 h); less than 4.30 in the experiment with HeLa (Homo sapiens, HeLa, 72 h).
Consider `C=C(C)[C@@H]1CC[C@]2(C(=O)OCCN3CCCCC3)CC[C@]3(C)[C@H](CC[C@@H]4[C@@]5(C)CC[C@H](O)C(C)(C)[C@@H]5CC[C@]43C)[C@@H]12`, for which the negative logarithm of the IC50 (pIC50) in the experiment on BJ (bj) was 4.34; in the experiment on G-361 (g-361), 4.47; with CCRF-CEM (Homo sapiens, CCRF-CEM, 72 h), 4.67; in the experiment on MCF7 (mcf7), 4.47; in the experiment on HeLa (hela), 4.61.
On to `CC(=O)O[C@H]1CC[C@]2(C)[C@H]3CC[C@@H]4C5=C(C(C)C)C(=O)C(=O)[C@]5(C(=O)OCCN5CCOCC5)CC[C@@]4(C)[C@]3(C)CC[C@H]2C1(C)C`, for which the negative logarithm of the IC50 (pIC50) in the experiment on BJ (Homo sapiens, BJ, 72 h) is 4.60; in the experiment with G-361 (Homo sapiens, G-361, 72 h), 5.66; in the experiment with CCRF-CEM (Homo sapiens, CCRF-CEM, 72 h) it was 5.09; with MCF7 (Homo sapiens, MCF7, 72 h), 4.74; in the experiment on HeLa (Homo sapiens, HeLa, 72 h), 5.26.
For `CC(=O)OC[C@@]1(C(=O)OCCBr)CC[C@]2(C)[C@H](CC[C@@H]3[C@@]4(C)CC[C@H](OC(C)=O)C(C)(C)[C@@H]4CC[C@]32C)[C@@H]1O`, in that order: less than 4.30, less than 4.30, less than 4.30, less than 4.30 and less than 4.30.
With `C=C(C)[C@@H]1CC[C@]2(C(=O)OCCN3CCCC3)CC[C@]3(C)[C@H](CC[C@@H]4[C@@]5(C)CC[C@H](O)C(C)(C)[C@@H]5CC[C@]43C)[C@@H]12`, the pIC50 is 4.64 with BJ (Homo sapiens, BJ, 72 h); 4.94 in the experiment on G-361 (Homo sapiens, G-361, 72 h); 5.30 in the experiment on CCRF-CEM (ccrf-cem); 4.70 in the experiment on MCF7 (Homo sapiens, MCF7, 72 h); 5.07 in the experiment on HeLa (Homo sapiens, HeLa, 72 h).
As to `CC(=O)O[C@H]1CC[C@]2(C)[C@H]3CC[C@@H]4C5=C(C(C)C)C(=O)C[C@]5(C(=O)OCC(=O)O)CC[C@@]4(C)[C@]3(C)CC[C@H]2C1(C)C`, the negative logarithm of the IC50 (pIC50) with BJ (Homo sapiens, BJ, 72 h) was less than 4.30; in the experiment with G-361 (Homo sapiens, G-361, 72 h), 4.34; with CCRF-CEM (Homo sapiens, CCRF-CEM, 72 h), 4.62; in the experiment with MCF7 (Homo sapiens, MCF7, 72 h) it was less than 4.30; in the experiment on HeLa (Homo sapiens, HeLa, 72 h), 4.32.
Consider `CC(C)[C@@H]1CC[C@]2(C(=O)OCCN3CCCCC3)CC[C@]3(C)[C@H](CC[C@@H]4[C@@]5(C)CC[C@H](O)C(C)(C)[C@@H]5CC[C@]43C)[C@@H]12`, for which the pIC50 was 4.35 in the experiment with BJ (Homo sapiens, BJ, 72 h); 4.49 with G-361 (Homo sapiens, G-361, 72 h); 4.71 in the experiment with CCRF-CEM (ccrf-cem); 4.50 in the experiment on MCF7 (Homo sapiens, MCF7, 72 h); 4.57 in the experiment on HeLa (Homo sapiens, HeLa, 72 h).
On to `COCCOCCOC(=O)[C@]1(COC(C)=O)CC[C@]2(C)[C@H](CC[C@@H]3[C@@]4(C)CC[C@H](OC(C)=O)C(C)(C)[C@@H]4CC[C@]32C)C1=O`, for which the negative-log IC50 (pIC50) with BJ (Homo sapiens, BJ, 72 h) was less than 4.30; in the experiment on G-361 (Homo sapiens, G-361, 72 h) it was less than 4.30; with CCRF-CEM (Homo sapiens, CCRF-CEM, 72 h) it was less than 4.30; with MCF7 (Homo sapiens, MCF7, 72 h) it was less than 4.30; in the experiment on HeLa (Homo sapiens, HeLa, 72 h), less than 4.30.
